Results: ChEMBL document CHEMBL3351415, “Synthesis, antimicrobial and anti-biofilm activities of novel Schiff base analogues derived from methyl-12-aminooctadec-9-enoate” (Bioorg Med Chem Lett, 2014)
≈ marks a conversion by molar mass, not a printed value.

Legend:
[1] = tested on: Micrococcus luteus; experiment: Antimicrobial activity against Micrococcus luteus MTCC 2470 incubated for 24 hrs by well diffusion method; format: functional; details: MTCC 2470, 24 h
[2] = tested on: Staphylococcus aureus; experiment: Antimicrobial activity against Staphylococcus aureus MTCC 96 incubated for 24 hrs by well diffusion method; format: functional; details: MTCC 96, 24 h
[3] = tested on: Staphylococcus aureus; experiment: Antimicrobial activity against Staphylococcus aureus MLS-16 MTCC 2940 incubated for 24 hrs by well diffusion method; format: functional; details: MLS-16 MTCC 2940, 24 h
[4] = tested on: Bacillus subtilis; experiment: Antimicrobial activity against Bacillus subtilis MTCC 121 incubated for 24 hrs by well diffusion method; format: functional; details: MTCC 121, 24 h
[5] = tested on: Escherichia coli; experiment: Antimicrobial activity against Escherichia coli MTCC 739 incubated for 24 hrs by well diffusion method; format: functional; details: MTCC 739, 24 h
[6] = tested on: Pseudomonas aeruginosa; experiment: Antimicrobial activity against Pseudomonas aeruginosa MTCC 2453 incubated for 24 hrs by well diffusion method; format: functional; details: MTCC 2453, 24 h
[7] = Antimicrobial activity against Klebsiella […] incubated for 24 hrs by well diffusion method; format: functional, Raoultella planticola
[8] = tested on: Staphylococcus aureus; experiment: Bactericidal activity against Staphylococcus aureus MTCC 96 incubated for 24 hrs; format: functional; details: MTCC 96, 24 h
[9] = tested on: Staphylococcus aureus; experiment: Bactericidal activity against Staphylococcus aureus MLS-16 MTCC 2940 incubated for 24 hrs; format: functional; details: MLS-16 MTCC 2940, 24 h
[10] = tested on: Bacillus subtilis; experiment: Bactericidal activity against Bacillus subtilis MTCC 121 incubated for 24 hrs; format: functional; details: MTCC 121, 24 h
[11] = tested on: Staphylococcus aureus; experiment: Anti-biofilm activity against Staphylococcus aureus MTCC 96 assessed as inhibition of biofilm formation incubated for 24 hrs by crystal violet staining based modified biofilm inhibition assay; format: functional, organism-based; details: MTCC 96, 24 h
[12] = tested on: Staphylococcus aureus; experiment: Anti-biofilm activity against Staphylococcus aureus MLS-16 MTCC 2940 assessed as inhibition of biofilm formation incubated for 24 hrs by crystal violet staining based modified biofilm inhibition assay; format: functional, organism-based; details: MLS-16 MTCC 2940, 24 h
[13] = tested on: Bacillus subtilis; experiment: Anti-biofilm activity against Bacillus subtilis MTCC 121 assessed as inhibition of biofilm formation incubated for 24 hrs by crystal violet staining based modified biofilm inhibition assay; format: functional, organism-based; details: MTCC 121, 24 h

Row | SMILES | MIC [1] | MIC [2] | MIC [3] | MIC [4] | MIC [5] | MIC [6] | MIC [7] | MBC [8] | MBC [9] | MBC [10] | IC50 [11] | IC50 [12] | IC50 [13]
1 | CCCCCCC(C/C=C\CCCCCCCC(=O)OC)/N=C\c1cc(OC)c(O)c(OC)c1 (stereo not given) | > 300 µM | 16.4 µM (≈ 7.8 µg/mL) | 16.4 µM (≈ 7.8 µg/mL) | 16.4 µM (≈ 7.8 µg/mL) | > 300 µM | > 300 µM | > 300 µM | 16.4 µM (≈ 7.8 µg/mL) | 32.8 µM (≈ 15.6 µg/mL) | 16.4 µM (≈ 7.8 µg/mL) | 7.3 µM | 6.5 µM | 8.6 µM
2 | CCCCCCC(C/C=C\CCCCCCCC(=O)OC)/N=C\c1ccc(O)cc1 (stereo not given) | > 300 µM | 18.7 µM (≈ 7.77 µg/mL) | 18.7 µM (≈ 7.77 µg/mL) | 37.5 µM (≈ 15.6 µg/mL) | > 300 µM | > 300 µM | > 300 µM | 37.5 µM (≈ 15.6 µg/mL) | 37.5 µM (≈ 15.6 µg/mL) | 75.1 µM (≈ 31.2 µg/mL) | 10.1 µM | 9.1 µM | 19.5 µM
3 | CCCCCCC(C/C=C\CCCCCCCC(=O)OC)/N=C\c1ccc(Cl)cc1Cl (stereo not given) | > 300 µM | > 300 µM | > 300 µM | > 300 µM | > 300 µM | > 300 µM | > 300 µM |  |  |  |  |  | 
4 | CCCCCCC(C/C=C\CCCCCCCC(=O)OC)/N=C\C=C\c1ccc(N(C)C)cc1 (stereo not given) | > 300 µM | 16.6 µM (≈ 7.78 µg/mL) | 16.6 µM (≈ 7.78 µg/mL) | 33.3 µM (≈ 15.6 µg/mL) | > 300 µM | > 300 µM | > 300 µM | 16.6 µM (≈ 7.78 µg/mL) | 33.3 µM (≈ 15.6 µg/mL) | 66.6 µM (≈ 31.2 µg/mL) | 10.2 µM | 8.1 µM | 21.7 µM
5 | CCCCCCC(C/C=C\CCCCCCCC(=O)OC)/N=C\c1ccc(Cl)cc1 (stereo not given) | > 300 µM | 9 µM (≈ 3.91 µg/mL) | 9 µM (≈ 3.91 µg/mL) | 9 µM (≈ 3.91 µg/mL) | > 300 µM | > 300 µM | > 300 µM | 18 µM (≈ 7.81 µg/mL) | 18 µM (≈ 7.81 µg/mL) | 9 µM (≈ 3.91 µg/mL) | 4.8 µM | 4.3 µM | 6 µM
6 | CCCCCCC(C/C=C\CCCCCCCC(=O)OC)/N=C\c1ccc(OC)cc1 (stereo not given) | > 300 µM | 18.1 µM (≈ 7.78 µg/mL) | 36.3 µM (≈ 15.6 µg/mL) | 18.1 µM (≈ 7.78 µg/mL) | > 300 µM | > 300 µM | > 300 µM | 36.3 µM (≈ 15.6 µg/mL) | 36.3 µM (≈ 15.6 µg/mL) | 36.3 µM (≈ 15.6 µg/mL) | 12.1 µM | 23.7 µM | 7.9 µM
7 | CCCCCCC(C/C=C\CCCCCCCC(=O)OC)/N=C\c1ccc(C)cc1 (stereo not given) | > 300 µM | > 300 µM | > 300 µM | > 300 µM | > 300 µM | > 300 µM | > 300 µM |  |  |  |  |  | 
8 | CCCCCCC(C/C=C\CCCCCCCC(=O)OC)/N=C\c1ccccc1O (stereo not given) | > 300 µM | > 300 µM | > 300 µM | > 300 µM | > 300 µM | > 300 µM | > 300 µM |  |  |  |  |  | 
9 | CCCCCCC(C/C=C\CCCCCCCC(=O)OC)/N=C\c1cccc(C)c1 (stereo not given) | > 300 µM | 151 µM (≈ 62.6 µg/mL) | 75.5 µM (≈ 31.2 µg/mL) | 75.5 µM (≈ 31.2 µg/mL) | > 300 µM | > 300 µM | > 300 µM |  |  |  |  |  | 
10 | CCCCCCC(C/C=C\CCCCCCCC(=O)OC)/N=C\c1ccc(F)cc1 (stereo not given) | > 300 µM | 150 µM (≈ 62.6 µg/mL) | 150 µM (≈ 62.6 µg/mL) | 150 µM (≈ 62.6 µg/mL) | > 300 µM | > 300 µM | > 300 µM |  |  |  |  |  | 
11 | CCCCCCC(C/C=C\CCCCCCCC(=O)OC)/N=C\c1ccc(O)c(OC)c1 (stereo not given) | > 300 µM | 17.5 µM (≈ 7.8 µg/mL) | 17.5 µM (≈ 7.8 µg/mL) | 17.5 µM (≈ 7.8 µg/mL) | > 300 µM | > 300 µM | > 300 µM | 35 µM (≈ 15.6 µg/mL) | 35 µM (≈ 15.6 µg/mL) | 35 µM (≈ 15.6 µg/mL) | 9.4 µM | 8 µM | 10.3 µM
12 | CCCCCCC(C/C=C\CCCCCCCC(=O)OC)/N=C\c1ccc(OC)c(OC)c1 (stereo not given) | > 300 µM | 67.9 µM (≈ 31.2 µg/mL) | 33.9 µM (≈ 15.6 µg/mL) | 33.9 µM (≈ 15.6 µg/mL) | > 300 µM | > 300 µM | > 300 µM | 136 µM (≈ 62.5 µg/mL) | 67.9 µM (≈ 31.2 µg/mL) | 33.9 µM (≈ 15.6 µg/mL) | 41.8 µM | 24.4 µM | 21.3 µM
13 | CCCCCCC(C/C=C\CCCCCCCC(=O)OC)/N=C\c1c[nH]c2ccccc12 (stereo not given) | > 300 µM | 17.8 µM (≈ 7.81 µg/mL) | 17.8 µM (≈ 7.81 µg/mL) | 35.6 µM (≈ 15.6 µg/mL) | > 300 µM | > 300 µM | > 300 µM | 35.6 µM (≈ 15.6 µg/mL) | 35.6 µM (≈ 15.6 µg/mL) | 71.2 µM (≈ 31.2 µg/mL) | 7.3 µM | 9.5 µM | 21.9 µM
14 | CCCCCCC(C/C=C\CCCCCCCC(=O)OC)/N=C\c1ccc(N(C)C)cc1 (stereo not given) | > 300 µM | 17.6 µM (≈ 7.79 µg/mL) | 17.6 µM (≈ 7.79 µg/mL) | 35.2 µM (≈ 15.6 µg/mL) | > 300 µM | > 300 µM | > 300 µM | 17.6 µM (≈ 7.79 µg/mL) | 35.2 µM (≈ 15.6 µg/mL) | 70.5 µM (≈ 31.2 µg/mL) | 9.5 µM | 11.5 µM | 27.8 µM
15 | CCCCCCC(C/C=C\CCCCCCCC(=O)OC)/N=C\c1cccc([N+](=O)[O-])c1 (stereo not given) | > 300 µM | > 300 µM | > 300 µM | > 300 µM | > 300 µM | > 300 µM | > 300 µM |  |  |  |  |  | 
16 | O=C(O)c1cn(C2CC2)c2cc(N3CCNCC3)c(F)cc2c1=O [CIPROFLOXACIN] | 2.7 µM (≈ 0.895 µg/mL) | 2.7 µM (≈ 0.895 µg/mL) | 2.7 µM (≈ 0.895 µg/mL) | 2.7 µM (≈ 0.895 µg/mL) | 2.7 µM (≈ 0.895 µg/mL) | 2.7 µM (≈ 0.895 µg/mL) | 2.7 µM (≈ 0.895 µg/mL) | 2.7 µM (≈ 0.895 µg/mL) | 5.7 µM (≈ 1.89 µg/mL) | 5.7 µM (≈ 1.89 µg/mL) | 0.99 µM |  | 1.53 µM
17 | CCCCCCC(C/C=C\CCCCCCCC(=O)OC)/N=C\c1ccc(C#N)cc1 (stereo not given) | > 300 µM | > 300 µM | > 300 µM | > 300 µM | > 300 µM | > 300 µM | > 300 µM |  |  |  |  |  | 
18 | CCCCCCC(C/C=C\CCCCCCCC(=O)OC)/N=C\c1ccc(OC)cc1OC (stereo not given) | > 300 µM | 67.9 µM (≈ 31.2 µg/mL) | 33.9 µM (≈ 15.6 µg/mL) | 33.9 µM (≈ 15.6 µg/mL) | > 300 µM | > 300 µM | > 300 µM |  |  |  |  |  | 
